Like-named read-outs stand apart in the source and are kept apart here.
What was measured:
[1] = tested on: peripheral blood mononuclear cells; experiment: Flow cytometric analysis (FACS) of PBMCs and monocyte subsets; details: for CD11b+Ly6Chigh / CD11b+Ly6Clow / Number of live/single PBMCs per mL blood: after 12 weeks
Procedure: White cell profiling was performed via FACS using the BD FACS Canto II apparatus (Becton
Dickinson, Franklin Lakes, New Jersey, USA). After 12 weeks of treatment, peripheral blood
mononuclear cells (PBMCs) were isolated from fresh blood samples of 8 mice per group, and
were sorted into CD11b+/CD11c- (monocytes), and further divided into CD11b+/Ly6Clow and
CD11b+/Ly6Chigh monocytes. The following conjugated monoclonal antibodies, all from
eBiosciences, were used: CD11b-FITC, CD11c-PE/Cy7, Ly6C-APC.

APOE*3Leiden.CETP mice [2] = experiment: Histological assessment of atherosclerosis (lesion area, number, severity) in the aortic root; format: in vivo; details: 16 weeks
Procedure: Significance of differences between the groups was calculated in SPSS 22.0 for Windows. Normally distributed data was tested parametrically using a one-way ANOVA for multiple comparisons with a Dunnett’s post-hoc test. Non-parametric data were compared separately with a Mann-Whitney U test with adjusted rejection criteria using a Bonferroni-Holm correction. Correlations between lesion size (after square root transformation) and cholesterol exposure were calculated with a Pearson’s correlation test. All groups were compared with the control group. Values are presented as means ± SD and p-values < 0.05 were considered statistically significant.
Pouwer et al Supplementary material
Dickinson, Franklin Lakes, New Jersey, USA). […]
Histological assessment of lung morphology and atherosclerosis […]
The caudal lung was cross […]
direction of the aortic arch. […]
valve leaflets and smooth muscle cells instead of collagen-rich tissue, serial cross sections (5 µm thick with intervals of 50 µm) were taken and mounted on AAS-coated slides. These sections were stained with hematoxylin-phloxine-saffron (HPS) for histological analysis. For each mouse, atherosclerosis was measured in 4 subsequent cross sections. Each section consisted of 3 segments. The average total lesion area per cross section was then calculated20
22. For determination of lesion severity the lesions were classified into five categories according to the American Heart Association classification 23: 0) no lesion I) early fatty streak, II) regular fatty streak, III) mild plaque, IV) moderate plaque, and V) severe plaque. The percentage of each lesion type was calculated, where type I-III lesions were classified as mild lesions and type IV-V lesions were classified as severe lesions 20 22. In the aortic root, lesion composition was determined for the severe lesions (type IV -V) as a percentage of lesion area after immunostaining with anti-human alpha-actin (1:400; PROGEN Biotechnik GmbH, Germany) for smooth muscle cells (SMC), and anti -mouse Mac-3 (1:50; BD Pharmingen, the Netherlands) for macrophages followed by Sirius Red staining. After Sirius Red staining for collagen, color intensity was determined in ImageJ and the used threshold was confirmed by evaluation of the sections under polarized light 24. Necrotic area and cholesterol clefts were measured after HPS staining13 20 22. Lesion stability index was calculated as described pre viously13 20. In each segment used for lesion quantification, the number of monocytes adhering to the endothelium were counted after immunostaining with AIA 31240 antibody (1:1000; Accurate Chemical and Scientific, New York, New York, USA) 14 20. […]

liver = experiment: Liver gene expression analysis (RNA sequencing) and pathway analysis; format: in vivo, APOE*3Leiden.CETP mice; details: vs control, Figure 7: imatinib 150, nilotinib 30, ponatinib 10 mg/kg
Procedure: To find early molecular signatures of other clinically relevant processes induced by the anti-CML drugs, gene expression and pathway analysis was performed in the liver as the central organ in lipid metabolism and synthesis of coagulation factors. To identify drug-specific molecular responses and overlap between the various treatments, the total number of differentially expressed genes (DEG) was assessed and a Venn-diagram was constructed comprising all DEG compared to control group. […]
Messenger RNA was isolated from liver of 8 mice per group, using the NEBNext Ultra RNA
sample Prep Kit. After fragmentation of the mRNA, cDNA synthesis was performed. The

MCP-1 = experiment: Plasma MCP-1 ELISA; format: in vivo, APOE*3Leiden.CETP mice; details: for MCP-1: after 16 weeks of treatment; for change of MCP-1 relative to baseline (T = 0 weeks): p < 0.001
From the text: (§1) Pouwer et al Supplementary material […]
(§2) The inflammatory markers SAA, E-selectin and MCP-
(§3) according to the manufacturer’s instruction. […]

APOE*3Leiden.CETP mice [3] = experiment: Blood pressure and heart rate (tail cuff); format: in vivo; details: after 2 and 15 weeks of treatment, all dose groups, vs control
From the text: as §1

SAA = experiment: Plasma SAA ELISA; format: in vivo, APOE*3Leiden.CETP mice; details: for SAA: after 16 weeks of treatment
From the text: as §1, §2, §3

AST = experiment: Plasma AST (pooled samples); details: after 16 weeks
Procedure: (§4) Plasma cholesterol, triglycerides, HDL-C, lipoprotein profiles, SAA, E-selectin and MCP-1, aspartate transaminase (AST) and alanine transaminase (ALT) were measured throughout the study.
(§5) Plasma ALT and AST were determined using a
(§6) spectrophotometric assay (Boehringer Reflotron system) in group wise-pooled samples.

[4] = Pharmacokinetic analysis and plasma drug concentrations (LC-MS/MS); format: in vivo, APOE*3Leiden.CETP mice; details: APOE*3Leiden.CETP, mouse, plasma; for AUC(0-t): read-out: AUC0–24
Procedure: Animal experiments were approved by the Institutional Animal Care and Use Committee of The Netherlands Organization for Applied Research under registration number 3557.
PK analysis and plasma drug concentrations
EDTA plasma samples collected during the 24-hour PK study and at week 16 of the (cardio)vascular risk factor-atherosclerosis study were subsequently stored at -80°C until analysis. Thawed plasma samples (50μL) were de-proteinized with two volumes of acetonitrile containing an appropriate src-inhibitor chemotype as internal standard for each analyte.
Following deproteinization, a 5μL portion of clear supernatant was then subjected to solvent gradient separation in an Agilent 1100 series HPLC system interfaced to a Micromass triple-quadrupole mass spectrometer, which was operated in the positive ion electrospray MRM mode to obtain daughter ions for quantitation: Ion transitions used for quantitation were as follows: […]
curves ranging from 1 nM to 6 uM were fitted with a quadratic regression weighted by reciprocal concentration (1/x). LLOQ for the purposes of this assay was between 1 and 2 nM for all compounds analyzed. QC samples at three levels in the range of the standard curve were used to accept individual analytical sets, and all results were calculated as the mean of triplicate determinations ± standard error. Tmax, Cmax and AUCs were calculated using the software Berkeley Madonna (version 8.3.18). […]

ALT = experiment: Plasma ALT (pooled samples); details: after 16 weeks
Procedure: as §4, §5, §6

[5] = po, repeated dose, BID, 150 mg/kg, after 16 weeks
[6] = po, repeated dose, QD, 10 mg/kg, after 16 weeks
[7] = po, repeated dose, QD, 30 mg/kg, after 16 weeks

With `Cc1ccc(NC(=O)c2ccc(CN3CCN(C)CC3)cc2)cc1Nc1nccc(-c2cccnc2)n1` [Imatinib, imatinib] the “CD11b+Ly6Chigh” value ([1]; 150 mg/kg BID) was 11.0 ± 3.6 % of monocyte population, the “CD11b+Ly6Clow” value ([1]; 150 mg/kg BID) was 69.1 ± 5.9 % of monocyte population and the “Number of live/single PBMCs per mL blood” value ([1]; 150 mg/kg BID) was 3.9 ± 1.3 *106 /mL. The “change of number of circulating PBMCs vs control” value ([1]; 150 mg/kg BID, at 12 weeks, p = 0.006) was −42%, the “change of total lesion area that consisted of severe (type IV–V) lesions vs control” value (APOE*3Leiden.CETP mice [2]; 150 mg/kg BID, p < 0.001) was −56% and the “reduction of atherosclerotic lesion area per cross-section vs control” value (APOE*3Leiden.CETP mice [2]; 150 mg/kg BID, p < 0.001) was 78%. For the same compound, the “gene expression of Protein C” value (liver) was “up-regulated”, the “gene expression of Protein S” value (liver) was “down-regulated” and the “gene expression of Serpina1 (PAI-1)” value (liver) was “up-regulated”. The “gene expression of Tpa” value (liver) was “down-regulated”, the “gene expression of Upa” value (liver) was “down-regulated” and the “effect on plasma MCP-1” value (MCP-1; 150 mg/kg BID, 16 weeks) was “None of the inflammatory markers were significantly altered”. For the same compound, the MCP-1 (MCP-1; 150 mg/kg BID) was 54 ± 44 pg/mL, the “effect on heart rate” value (APOE*3Leiden.CETP mice [3]) was “not affected” and the “effect on systolic blood pressure (SBP)” value (APOE*3Leiden.CETP mice [3]) was “not affected”. The “effect on plasma SAA” value (SAA; 150 mg/kg BID, 16 weeks) was “None of the inflammatory markers were significantly altered”, the SAA (SAA; 150 mg/kg BID) was 9.6 ± 0.5 µg/mL and the AST (AST; 150 mg/kg BID) was 147 U/L. For the same compound, the Cmax [4, 5] was 11100 ng/mL, the Tmax [4, 5] was 2.47 h and the AUC(0-t) [4, 5] was 78100 ng·h/mL. The Cmax ([4]; single oral gavage, 100 mg/kg) was 5290 ng/mL, the Tmax ([4]; single oral gavage, 100 mg/kg) was 2.28 h and the AUC(0-t) ([4]; single oral gavage, 100 mg/kg) was 32800 ng·h/mL. It also gave an ALT (ALT; 150 mg/kg BID) of 31 U/L.

In the case of `Cc1cn(-c2cc(NC(=O)c3ccc(C)c(Nc4nccc(-c5cccnc5)n4)c3)cc(C(F)(F)F)c2)cn1` [Nilotinib, nilotinib], the “CD11b+Ly6Chigh” value ([1]; 10 mg/kg) was 27.5 ± 4.3 % of monocyte population, the “CD11b+Ly6Clow” value ([1]; 10 mg/kg) was 61.4 ± 4.8 % of monocyte population and the “Number of live/single PBMCs per mL blood” value ([1]; 10 mg/kg) was 6.5 ± 2.4 *106 /mL. The “CD11b+Ly6Chigh” value ([1]; 30 mg/kg) was 11.4 ± 3.8 % of monocyte population, the “CD11b+Ly6Clow” value ([1]; 30 mg/kg) was 73.2 ± 4.9 % of monocyte population and the “Number of live/single PBMCs per mL blood” value ([1]; 30 mg/kg) was 6.4 ± 1.4 *106 /mL. The “effect on atherosclerotic lesion area” value (APOE*3Leiden.CETP mice [2]; 10 and 30 mg/kg QD) was “not affected”, the “gene expression of F5” value (liver) was “down-regulation” and the “gene expression of F9” value (liver) was “down-regulation”. The “gene expression of Protein S” value (liver) was “down-regulation”, the “gene expression of Serpina1 (PAI-1)” value (liver) was “up-regulated” and the “change of MCP-1 relative to baseline (T = 0 weeks)” value (MCP-1; 10 mg/kg QD, 16 weeks) was “+220%”. The MCP-1 (MCP-1; 10 mg/kg QD) was 144 ± 82 pg/mL, the “change of MCP-1 relative to baseline (T = 0 weeks)” value (MCP-1; 30 mg/kg QD, 16 weeks) was “+160%” and the MCP-1 (MCP-1; 30 mg/kg QD) was 117 ± 60 pg/mL. The “effect on heart rate” value (APOE*3Leiden.CETP mice [3]) was “not affected”, the “effect on systolic blood pressure (SBP)” value (APOE*3Leiden.CETP mice [3]) was “not affected” and the SAA (SAA; 10 mg/kg QD) was 10.6 ± 1.0 µg/mL. It also gave an SAA (SAA; 30 mg/kg QD) of 10.6 ± 1.1 µg/mL, an AST (AST; 10 mg/kg) of 210 U/L and an AST (AST; 30 mg/kg) of 221 U/L. The Cmax [4, 6] was 2300 ng/mL, the Tmax [4, 6] was 3.17 h and the AUC(0-t) [4, 6] was 24600 ng·h/mL. The Cmax [4, 7] was 6890 ng/mL, the Tmax [4, 7] was 3.17 h and the AUC(0-t) [4, 7] was 73800 ng·h/mL. It also gave a Cmax ([4]; single oral gavage, 50 mg/kg) of 11000 ng/mL, a Tmax ([4]; single oral gavage, 50 mg/kg) of 3.26 h and an AUC(0-t) ([4]; single oral gavage, 50 mg/kg) of 117000 ng·h/mL. For the same compound, the ALT (ALT; 10 mg/kg) was 64 U/L and the ALT (ALT; 30 mg/kg) was 81 U/L.

From article PMC6005845 (Frontiers in Cardiovascular Medicine, 2018)
